Results as given in patent US8841325B2, “Immunomodulatory compounds for the restoration of vitamin D sensitivity in vitamin D resistant tumor cells” (Celgene Corporation, priority 2009, dated 2014).
Entries after “also recorded” stand apart in the source; their conditions may differ.

Columns and labels:
Assay type in all cases: cell-based
MCF-12A cells [1] = assay: Cell viability by neutral red assay, MCF-12A
Protocol: (§1) Cells were seeded in 24 wells plates at a density of 10^4 cells per well and allowed to adhere for 24 hours. […] The drug was renewed every 2 days. Cell viability was then determined by neutral red assay, measuring absorbance at 550 nm.
(§2) After 6 days treatment, cells were seeded into 24 well plates at a density of 1×10^4 cells/wells. After 24 h, cells were treated with reagents or vehicle for up to six days. At the end of the incubation period, medium was removed and cells were incubated with neutral red solution (40 μg/ml in phenol red and serum free DMEM) for 2 h at 37° C. After removal of the neutral red solution, wells were rinsed once with 1 ml 4% formal saline containing 0.5% CaCl2. Plates were inverted on paper towel to drain and 200 μl of elution fluid (1% acetic acid in 50% ethanol) was added. Following incubation at room temperature for 30 min with gentle shaking, absorbance at 550 nm was determined

MCF-7 cells [2] = assay: Cell viability by neutral red assay, MCF-7
Protocol: as §1, §2

MDA-MB-231 cells [3] = assay: Cell viability by neutral red assay, MDA-MB-231; conditions: for effect on cell viability: up to 6 days
Protocol: as §1, §2
To accomplish this, cells were treated for up to 6 days with different concentrations of a BCL-2 inhibitor, ABT-263 ([…]). Non-treated cells were used as a control. After 6 days of treatment, cell viability was measured by neutral red assay (FIG. 16). In the three cell lines, BCL-2 inhibition leads to cell death. The IC50 is almost equivalent in all cell lines (1 μM+/−0.2 μM).
More particularly, FIG. 16 illustrates the effects of BCL-2 inhibition on MCF-7VD^R and HBL-100 viability. MDA-MB-231, MCF-7/VD^R and HBL-100 cells were treated for up to 6 days with different concentrations of ABT-263 (0.2 up to 20 μM). Non-treated cells were used as a control. After 6 days of treatment, cell viability was measured by neutral red assay. Results are mean of three independent experiments (each made in quadruplicate).

MCF-12A cells [4] = assay: Cell growth by Sulphorhodamine B (SRB) assay, MCF-12A; conditions: for effect on cell growth: single agent, Thalidomide 0.01-100 μM, CC-4047 and lenalidomide 0.001-10 μM, FIG. 6B
Protocol: (§3) Cells were seeded in 24 wells plates at a density of 10^4 cells per well and allowed to adhere for 24 hours. […] Each treatment was carried out for up to 7 days, but renewed every 2 days. Cell growth was then determined by Sulphorhodamine B (SRB) assay, measuring absorbance at 550 nm.
(§4) After 6 days treatment, cells were seeded in 24 well plates at a density of 1×10^4 cells/well. After 24 h cells were treated with reagents or vehicle for up to six days. Cells were treated for up to 6 days with log doses of Thalidomide (0.1 μM up to 100 μM), pomalidomide and lenalidomide (0 μM up to 10 μM). At the end of each experiment, cells were fixed to the bottom of the well by addition of ice-cold 50% w/v trichloroacetic acid (TCA) to give a final concentration of 10% TCA. Plates were incubated at 4° C. for 30 minutes and then washed with distilled water. Plates were allowed to air-dry at room temperature before staining with 0.4% w/v SRB in 1% v/v acetic acid and incubated for 15 minutes on a shaker. The plates were then extensively washed with 1% acetic acid to remove unbound dye and were again allowed to air-dry at room temperature. Incorporated dye was solubilised with 200 μl […] Tris base. 100 μl aliquots were transferred to a 96 well plate and absorbance at 550 nm was determined

MCF-7 cells [5] = assay: Cell growth by Sulphorhodamine B (SRB) assay, MCF-7; conditions: for effect on cell growth: single agent, Thalidomide 0.01-100 μM, CC-4047 and lenalidomide 0.001-10 μM, FIG. 6B
Protocol: as §3, §4

MDA-MB-231 cells [6] = assay: Cell growth by Sulphorhodamine B (SRB) assay, MDA-MB-231
Protocol: (§5) Cells were seeded in 24 wells plates at a density of 10^4 cells per well and allowed to adhere for 24 hours. To determine the combination effects of the drugs, cells were treated with 100 nM 1,25 D3 and 10 nM 1-oxo-2-(2,6-dioxopiperidin-3-yl)-4-aminoisoindoline or 1,3-dioxo-2-(2,6-dioxopiperidin-3-3-yl)-4-aminoisoindoline. Each treatment was carried out for up to 7 days, but renewed every 2 days. Cell growth was then determined by Sulphorhodamine B (SRB) assay, measuring absorbance at 550 nm.
as §5, with “per wekk” for “per well”, “and varying doses of” for “and 10 nM”, “or 1,3-dioxo-2-(2,6-dioxopiperidin-3-yl)-4-aminoisoindoline.” for “or 1,3-dioxo-2-(2,6-dioxopiperidin-3-3-yl)-4-aminoisoindoline.”
as §4

MDA-MB-231 cells [7] = assay: Apoptosis protein array and Western blot (p53, p21, p27, claspin, BCL-2); conditions: for expression of the anti-apoptotic protein Bcl-2: 1 μM lenalidomide or 100 nM 1,25-D3 alone
Protocol: Cells were lysed in RIPA buffer containing 1% NP40, 0.5% sodium deoxycholate, 0.1% SDS and PBS and lysates containing 300 μg protein were probed with an R and D apoptosis protein array kit according to the manufacturers instructions (R&D catalogue number ARY009). Spots were visualised using the enhanced chemiluminescence Western blotting detection system (ECL, Amersham, N.J., USA). Densitometric analysis was performed using Adobe Photoshop CS2.
To determine the pathways and proteins involved in the increased apoptosis seen with the lenalidomide/1, 25-D3 combination treatment, whole proteins were extracted from cells taken from the different treatments and were used for probing with an apoptosis protein array, according to the manufacturer. FIG. 9 illustrates the effects. […] Cells were also treated with 0.1% DMSO as a control. Cells were lysed with RIPA buffer as described in the materials and methods, and 300 μg of protein from each of the samples was used for probing with the R& D apoptosis array according to the manufacturers instructions. Results are representative of 2 separate arrays performed. The protein array gives a semi quantitative analysis of changes in the key apoptosis and checkpoint pathway proteins. […] All these proteins are well known to be major pro-apoptotic or checkpoint regulatory proteins. […] All theses results were confirmed by Western blot (FIG. 10 (a)) and densitometry plots of the array and western blot bands/dots were carried out to quantitate the changed expression of these proteins (FIG. 10 (b)). Therefore, the increase in pro-apoptotic proteins coupled with a decrease in Bcl-2 may be responsible for the increased apoptosis seen with the combination treatment.
More particularly, FIG. 10 illustrates the effects of co-treatment lenalidomide/1, 25-D3 on p53 activation and p21, p27, claspin, and BCL-2 protein expression in MDA-MB-231 cells. […] Cells were also treated with 0.1% DMSO as a control. Whole proteins were extracted and probed for p53 (serine 15 and serine 392), p21, p27, claspin, and BCL-2, with b-actin as a house-keeping protein.

[8] = 100 nM 1,25-D3 alone, up to 6 days, FIG. 7A
[9] = 1,25 D3 0-100 nM, 7 days, FIG. 1
[10] = 100 nM 1,25-D3 alone, up to 6 days, FIG. 7B
[11] = 1,25 D3 alone, read-out: dose giving IC50 inhibition
[12] = single agent, up to 6 days, Thalidomide 0.01-100 μM, CC-4047 and lenalidomide 0.001-10 μM, FIG. 6A
[13] = up to 6 days, listed as lenalidomide
[14] = 1 μM lenalidomide co-treatment with 100 nM 1,25-D3, up to 6 days

C=C1/C(=C\C=C2/CCC[C@]3(C)[C@@H]([C@H](C)CCCC(C)(C)O)CC[C@@H]23)C[C@@H](O)C[C@@H]1O [1,25-D3, 1α,25-dihydroxyvitamin D3]
inhibition of viability (MCF-12A cells [1]; [8]): 35% | sensitivity of cell viability to vitamin D agent treatment (MCF-12A cells [1]; [9]): showed sensitivity | inhibition of viability (MCF-7 cells [2]; [8]): 40% | sensitivity of cell viability to vitamin D agent treatment (MCF-7 cells [2]; [9]): showed sensitivity | effect on cell viability (MDA-MB-231 cells [3]; 100 nM 1,25-D3 or 1 μM IMiD alone): no effect | sensitivity of cell viability to vitamin D agent treatment (MDA-MB-231 cells [3]; [9]): resistant | inhibition of growth (MCF-12A cells [4]; [10]): 55% | IC50 (MCF-12A cells [4]; [11]): 100 nM | inhibition of growth (MCF-7 cells [5]; [10]): 30% | IC50 (MCF-7 cells [5]; [11]): 100 nM | effect on cell growth (MDA-MB-231 cells [6]; 100 nM 1,25-D3 or 1 μM IMiD alone, up to 6 days): no effect | expression of the anti-apoptotic protein Bcl-2 (MDA-MB-231 cells [7]; up to 6 days): does not affect

Nc1cccc2c1CN(C1CCC(=O)NC1=O)C2=O (stereo not drawn) [Lenalidomide, 1-oxo-2-(2,6-dioxopiperidin-3-yl)-4-aminoisoindoline]
effect on cell viability (MCF-12A cells [1]; [12]): do not Affect | effect on cell viability (MCF-7 cells [2]; [12]): do not Affect | effect on cell viability (MDA-MB-231 cells [3]; single agent, Thalidomide 0.01-100 μM, CC-4047 and lenalidomide 0.001-10 μM, FIG. 6A): do not Affect | effect on cell growth (MCF-12A cells [4]; up to 6 days): do not Affect | effect on cell growth (MCF-12A cells [4]; [13]): no effect | effect on cell growth (MCF-7 cells [5]; up to 6 days): do not Affect | effect on cell growth (MCF-7 cells [5]; [13]): no effect | inhibition at 10 µM (MDA-MB-231 cells [6]; Homo sapiens, MDA-MB-231, 144 h, single agent, 10 μM lenalidomide (highest dose), up to 6 days): 28% | minimal concentration giving statistically significant inhibition of growth (MDA-MB-231 cells [6]; in the presence of 100 nM 1,25 D3, up to 7 days, FIG. 3): 1 µM | inhibition of growth (MDA-MB-231 cells [6]; single agent, 10 μM lenalidomide (highest dose), up to 6 days): 20% | BCL-2 expression (MDA-MB-231 cells [7]; [14]): inhibits BCL-2 expression; also recorded: abolished by the combination | p21, p27 and claspin expression (MDA-MB-231 cells [7]; [14]): induces activation | p53 activation (phosphorylation of serine 15 and serine 392) (MDA-MB-231 cells [7]; [14]): induces p53 activation | p53 activation (phosphorylation of serine 15 and serine 392) (MDA-MB-231 cells [7]; 1 μM lenalidomide only, up to 6 days): induces p53 activation | expression of the anti-apoptotic protein Bcl-2 (MDA-MB-231 cells [7]; up to 6 days): does not affect | proapoptotic protein claspin (MDA-MB-231 cells [7]; combination of lenalidomide and 1,25D3 versus either agent alone): upregulated by the combination, but not with either agent alone | proapoptotic proteins P21, P27 and P53S392 (MDA-MB-231 cells [7]; lenalidomide in combination with vitamin D): upregulated | proapoptotic proteins P21, P27 and P53S392 (MDA-MB-231 cells [7]; lenalidomide on its own): upregulated
